Source: US20250114350A1, “INHIBITORS OF […] AS ANTIFUNGAL AGENTS” (Regents of the University of Minnesota, priority 2023, published 2025)
In brackets after ≈: the same amount, converted by molar mass. Entries after “also recorded” stand apart in the source; their conditions may differ. Read-outs that look alike come from different tables or passages of the source.

Columns and labels:
C. neoformans biofilms = test: Biofilm inhibition; type: cell-based, Cryptococcus neoformans
[1] = target: CnFTase (C. neoformans farnesyl transferase, α/β heterodimer) (Cryptococcus neoformans, UniProt J9VSJ6+T2BPA1); test: CnFTase activity assay: farnesylation of a dansylated (fluorescent) peptide, inhibitor concentration giving half-maximal enzyme rates at 1 μM FPP (1μMIC50); conditions: read-out: CnFTase IC50 (1μMIC50), condition A: 20 nM CnFTase, dansyl-GCVVM 0.62 μM, Tris-HCl pH 7.5, ZnCl2 12.5 μM, 2.5% DMSO, room temperature, triplicate
CnFTase (C. neoformans farnesyl transferase, α/β heterodimer), sequence (J9VSJ6 entry or part of it): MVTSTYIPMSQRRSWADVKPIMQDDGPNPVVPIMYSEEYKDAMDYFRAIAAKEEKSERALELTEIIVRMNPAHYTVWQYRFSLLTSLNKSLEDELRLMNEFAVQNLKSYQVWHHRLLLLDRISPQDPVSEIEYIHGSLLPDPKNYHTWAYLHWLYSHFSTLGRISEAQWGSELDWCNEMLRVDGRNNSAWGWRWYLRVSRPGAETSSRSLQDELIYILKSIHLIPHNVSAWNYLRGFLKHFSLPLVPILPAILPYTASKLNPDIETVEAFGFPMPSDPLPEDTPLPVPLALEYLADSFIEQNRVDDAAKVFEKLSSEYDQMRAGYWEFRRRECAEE
CnFTase (C. neoformans farnesyl transferase, α/β heterodimer), sequence (T2BPA1 entry or part of it): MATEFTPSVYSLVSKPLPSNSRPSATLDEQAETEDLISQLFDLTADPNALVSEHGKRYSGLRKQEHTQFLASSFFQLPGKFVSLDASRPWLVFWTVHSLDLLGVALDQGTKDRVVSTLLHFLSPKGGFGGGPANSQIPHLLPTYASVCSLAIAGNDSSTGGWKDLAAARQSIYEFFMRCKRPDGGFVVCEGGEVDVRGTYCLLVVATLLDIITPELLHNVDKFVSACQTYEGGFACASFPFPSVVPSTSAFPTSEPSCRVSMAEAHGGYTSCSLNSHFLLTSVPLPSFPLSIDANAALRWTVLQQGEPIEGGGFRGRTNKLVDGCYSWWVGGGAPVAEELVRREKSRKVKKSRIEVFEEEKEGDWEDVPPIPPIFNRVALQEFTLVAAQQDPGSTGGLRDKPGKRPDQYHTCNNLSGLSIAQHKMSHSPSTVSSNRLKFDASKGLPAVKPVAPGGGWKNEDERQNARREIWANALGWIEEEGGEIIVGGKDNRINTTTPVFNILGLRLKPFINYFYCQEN
Experimental: (§2) CnFTase activity assay. […] Final CnFTase concentrations (from 5× or 10× stocks in 20 mM Tris-HCl pH7.5, 20 mM NaCl, 5 μM ZnCl2, 1 mM TCEP, 1 mg/mL BSA): A, 20 nM; B: 4.4, 6.7, 10 nM triplets. […] For experiments that included phosphate, pH 7.5 stock was added to the desired final concentration. […] Data for determining ^1μMIC50 values (condition A) was collected in triplicate. Initial rates, vo, were extracted by fitting a straight line to the initial to tmax seconds of the reaction progress curves, where tmax values were selected by inspection and entered into curator tables for automated analysis. 1μMIC50 were determined by fitting a single-site Langmuir ligand-binding isotherm to the dependence of vo on inhibitor concentration (2, see below). All other experiments (condition B) all other experiments (condition B) used three different CnFTase concentrations, collecting progress curves as a function of FPP, inhibitor, and phosphate concentrations. The resulting triplet of progress curves was used to extract vo values automatically by minimizing
If x is an inhibitor concentration, then IC50=Ka^−1. […] In general, baseline signals, σ, (α or β) can be constant, or linear functions of ligand concentration x

[2] = system: J774A.1 macrophage-like murine cells; conditions: mouse, 24 h
Experimental: Macrophage cytotoxicity assays. […] 2 μL of the serially diluted compound were transferred to a 96-well plate containing 200 μL DMEM (100× dilution). J774A.1, a macrophage-like murine cell line, was incubated in DMEM (Dulbecco's Modified Eagle Medium, Sigma-Aldrich) to 70% confluency, harvested, washed in PBS, then transferred to black, clear-bottom 96-well plates (Greiner) at 10^5 cells/well. Plates were incubated overnight at 37° C. and 5% CO2. The macrophage medium covering the J774A.1 monolayer was replaced with 100 μL of DMEM containing the serially diluted inhibitors (50× dilution) and incubated for 24 h at 37° C. and 5% CO2. Macrophage viability was assessed at 24 h by the addition of 10% AlamarBlue and incubating for 3 h at 37° C. and 5% CO2 prior to fluorescence measurement (FLUORStar Optima plate reader). Assays were performed in duplicate.

CnFTase = CnFTase (Cryptococcus neoformans, UniProt J9VSJ6+T2BPA1); test: CnFTase steady-state kinetics fit to competitive/uncompetitive/mixed inhibition models; conditions: for inhibition mode: with respect to FPP
CnFTase, sequence (J9VSJ6 entry or part of it): as the sequence (J9VSJ6 entry or part of it) above
CnFTase, sequence (T2BPA1 entry or part of it): as the sequence (T2BPA1 entry or part of it) above
Experimental: as §2
where χk^2 is the squared difference of the calculated and observed emissions in the k^th iteration of the minimizer, fi the initial fraction (constrained in the interval [0.5,1]) of the T time points of the progress curve, Di the dilution factor of the i^th progress curve (0.44:0.66:1 for condition B), S0ik the fluorescence emission intensity of the i^th progress curve at t=0 at the k^th (this value is refined individually using a one-dimensional golden section search^52 with fi and v0 values of the k−1 iteration), and ^obsSji, the observed intensity of the i^th progress curve at the j^th time point. The target function 1 is minimized using conjugate gradients with vo and fi as the degrees of freedom. The resulting rates were then fit to binding polynomials describing the inhibition mechanism (5-13, see below).
Binding polynomials for inhibition models. The initial steady-state rates of a reaction involving a single-substrate x, and inhibitor y are given by
Three binding polynomials were used:
where Ka, KC, and KU are the affinities of the enzyme for substrate, competitive inhibitor, and uncompetitive inhibitor, respectively.
Solvers for non-ideal conditions. In non-ideal conditions 9 is false, and the total protein concentration needs to be included as a degree of freedom, requiring the roots of the following multivariate polynomial to be found (see below for derivation):

[3] = system: C. neoformans strain over-expressing CnFTase (pGAL7-RAM1); test: Disc diffusion assay with galactose-inducible RAM1 over-expression; type: cell-based, Cryptococcus neoformans; conditions: galactose induced; discs with 10 μL of 20 mM
Experimental: (§1) FIG. 3. CnFTase is the in vivo target of 2f. (A) Ras cellular mislocalization, assessed by epifluorescent microscopy (1000×). Bar=10 μm. Top. […] Bottom. Control patterns of Ras localization with wild-type (left) and ram1Δ deletion (right) strains expressing mCherry-Ras1. […] A C. neoformans strain transformed with the galactose-regulated pGAL7-RAM1 over-expression construct was incubated with glucose (uninduced, bottom), and galactose (induced, top). Antifungal activity was assessed by the relative size of the zone of fungal growth inhibition surrounding sterile discs impregnated with 10 μL of 20 mM 2f dissolved in DMSO (bottom disk) or DMSO alone (top disc).
Molecular Biology. […] To induce C. neoformans mating, strains of opposite mating types were co-cultured on MS medium at 25° C. for seven days (Murashige, T, et al., Physiol Plantarum, 1962, 15, 473-497). A C. neoformans strain with a galactose-inducible RAM1 allele (CBN482) was similarly created with primers designed to create an overlap construct comprising the C. neoformans RAM1 5′ sequence-neomycin resistance cassette-GAL7 promoter-RAM1 coding sequence (FIG. 9) to precisely replace the RAM1 promoter with the GAL7 galactose inducible when introduced into the H99 genome by biolistic transformation.
Disc diffusion assay. […]

C. neoformans [4] = test: Minimum inhibitory concentration (MIC): disc diffusion and broth microdilution
Experimental: Antifungal activity was determined by measuring minimum inhibitory concentrations (MIC) of C. neoformans by two methods: a solid medium disc diffusion assay and broth microdilution assay.
Disc diffusion assay. Overnight cultures of C. neoformans (about 18 hours) were normalized to OD600 0.6, diluted 1/10, and 200 μL of each sample were spread onto either a YPD or YPGal (yeast extract-peptone medium with 3% galactose) plate using sterile glass beads. After drying, 10 μL of compound or solvent control (DMSO) was added to sterile 6 mm filter discs on each plate. Plates were incubated for 48 hours at 37° C.
Minimum inhibitory concentration (MIC) assays. C. neoformans: Overnight cultures (˜18 h) of C. neoformans strains incubated in YPD medium were diluted to 500 cells/ml in RPMI medium buffered with MOPS. Cells were aliquoted (200 μL/well) in black-wall, clear-bottom 96-wells plates (Greiner). Compound stock solutions in DMSO ranged from 9 μM to 20 mM, and added to 200 μL cell suspension aliquoted in 96-well plates. Final aqueous concentrations ranged from 200 μM to 0.09 μM, limiting DMSO to 1%. After 48-hr incubation at 37° C. or 30° C. for 48 h, 10% AlamarBlue (BioRad) was added. The end-point fluorescence intensity of reduced AlamarBlue was measured using a fluorescence plate reader (FLUORStar Optima plate reader) at the time point the indicator turned from blue to pink in healthy control cells.^51 Assays were performed in duplicate.

[5] = system: Gfp-Ras1 localization in C. neoformans; test: Ras1 cellular localization by fluorescent microscopy; type: cell-based, Cryptococcus neoformans; conditions: sub-lethal concentrations; 0.78 μM (sub-inhibitory)
Experimental: as §1
Compound 2f inhibited FTase activity in vivo. […] Both effects are consistent with CnFTase being the target of Compound 2f, as expected.
Microscopy. […] A drug-free control sample contained 1% DMSO. Ras1 localization in a ram1Δ mutant strain was determined in a similar manner: a ram1Δ mutant and wild-type strain, each expressing mCherry-Ras1 under a constitutive promoter (CBN121 and SKE17) were incubated overnight in YPD medium at 30° C., diluted to OD600 0.1 in YPD, then incubated for 24 hours at 37° C. All cells were visualized and imaged by fluorescent microscopy at 1000× magnification using a Zeiss Imager A1 microscope and Zeiss Axio-Cam MRM digital camera. […]

[6] = system: Schizosaccharomyces pombe; test: S. pombe MIC assay (efflux effects); conditions: for MIC: Schizosaccharomyces pombe
mammalian FTase = mammalian FTase (Homo sapiens, UniProt P49354+P49356); test: Inhibition of mammalian FTase; type: biochemical
mammalian FTase, sequence (P49356 whole entry, one chain of several): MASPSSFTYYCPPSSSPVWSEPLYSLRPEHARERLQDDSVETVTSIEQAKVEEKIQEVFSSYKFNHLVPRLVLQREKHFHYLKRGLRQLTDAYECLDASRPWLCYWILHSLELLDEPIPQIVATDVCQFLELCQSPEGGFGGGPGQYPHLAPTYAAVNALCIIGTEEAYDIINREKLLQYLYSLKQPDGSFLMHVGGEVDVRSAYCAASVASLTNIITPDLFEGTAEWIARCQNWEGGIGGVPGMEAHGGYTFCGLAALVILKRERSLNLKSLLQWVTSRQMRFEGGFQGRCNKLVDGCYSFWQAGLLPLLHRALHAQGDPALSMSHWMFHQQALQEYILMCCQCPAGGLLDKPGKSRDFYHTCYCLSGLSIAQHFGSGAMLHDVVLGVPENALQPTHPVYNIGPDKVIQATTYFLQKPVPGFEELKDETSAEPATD

[7] = system: C. neoformans FTase (CnFTase); test: CnFTase activity assay, farnesylation of a fluorescent (dansylated) peptide, 1μMIC50; type: biochemical, Cryptococcus neoformans
Experimental: The library of 23 compounds contained leads with 60- to 150-fold enhanced ^1μMIC50 values.
CnFTase activity assay. The farnesyl transferase activity was measured by measuring the time dependence of the fluorescence emission intensity increase due to farnesylation of a dansylated peptide (Cassidy, P. B, et al., Methods Enzymol, 1995, 250, 30-43). Measurements were taken at room temperature in a 96-well black polystyrene, half area, flat bottom, non-binding surface plate using a SpectraMax M5e plate reader (excitation wavelength, 340 nm; emission wavelength 525 nm; emission high-pass filter, 455 nm). […] Final CnFTase concentrations (from 5× or 10× stocks in 20 mM Tris-HCl pH7.5, 20 mM NaCl, 5 μM ZnCl2, 1 mM TCEP, 1 mg/mL BSA): A, 20 nM; B: 4.4, 6.7, 10 nM triplets. […] For experiments that included phosphate, pH 7.5 stock was added to the desired final concentration. Data was analyzed using Python scripts for the Biomolecular Computing (BMC) package, included in the Dryad electronic repository. Data for determining ^1μMIC50 values (condition A) was collected in triplicate. Initial rates, vo, were extracted by fitting a straight line to the initial to tmax seconds of the reaction progress curves, where tmax values were selected by inspection and entered into curator tables for automated analysis. 1μMIC50 were determined by fitting a single-site Langmuir ligand-binding isotherm to the dependence of vo on inhibitor concentration (2, see below). All other experiments (condition B) […] used three different CnFTase concentrations, collecting progress curves as a function of FPP, inhibitor, and phosphate concentrations. The resulting triplet of progress curves was used to extract vo values automatically by minimizing
Single-site binding isotherms. Signals, S, resulting from a binding reaction were fit to
where α and β are the baselines associated with the apo-protein and its ligand complex, respectively, and y fractional occupancy of the binding site
If x is an inhibitor concentration, then IC50=Ka^−1. For Michaelis-Menten analysis 2 is reduced to a standard form (Bahar, I.; Jernigan, R. L.; Dill, K. A. Protein Actions, principles & modeling. Garland Science: 2017) with S=vo (initial rates), α=0, β=Vmax (maximal velocity), and KM=Ka^−1 (substrate dissociation constant). In general, baseline signals, σ, (α or β) can be constant, or linear functions of ligand concentration x

[8] = system: C. neoformans FTase (CnFTase); conditions: Hast et al. 2011; cited from earlier work
C. neoformans [9] = conditions: cited from earlier work

Q: With CCCC[C@H]1CN(c2cccc(OC(F)(F)F)c2)C(=O)CN1Cc1cncn1Cc1ccc(Br)cc1 [Compound 2f, (S)-4-((1-(4-Bromobenzyl)-1H-imidazol-5-yl)methyl)-5-butyl-1-(3-(trifluoromethoxy)phenyl)piperazin-2-one] as the compound, how does the biofilm inhibition (C. neoformans biofilms) read?
A: inhibits C. neoformans biofilms

Q: What about the IC50 [1] of the same compound?
A: 190 ± 60 nM

Q: What about the MIC [2] of the same compound?
A: 200 µM (≈ 113 µg/mL)

Q: And the “improvement of competitive affinity in the H state” value (CnFTase; H state vs L state)?
A: ~100 fold

Q: And the “competitive affinity better than the uncompetitive value” (CnFTase; H state, 10 mM phosphate)?
A: ~170 fold

Q: What about the Ki (CnFTase; HKU, uncompetitive inhibitor affinity (dissociation constant), H state, 10 mM phosphate (H state)) of the same compound?
A: 500 nM

Q: And the Ki (CnFTase; LKU, uncompetitive inhibitor affinity (dissociation constant), L state, absence of phosphate (L state))?
A: 750 nM

Q: What about the Ki (CnFTase; read-out: HKC, competitive inhibitor affinity (dissociation constant), H state, 10 mM phosphate (H state)) of the same compound?
A: 3 nM

Q: And the Ki (CnFTase; read-out: LKC, competitive inhibitor affinity (dissociation constant), L state, absence of phosphate (L state))?
A: 320 nM

Q: What about the inhibition mode (CnFTase) of the same compound?
A: mixture of two binding modes: uncompetitive like Compound 2q, and a competitive mode that displaces FPP

Q: And the “effect of CnFTase (Ram1) over-expression on antifungal activity” value [3]?
A: negates 2f antifungal activity; also recorded: negated antifungal activity

Q: And the MIC (C. neoformans [4]; Cryptococcus neoformans)?
A: 3 to 6 µM (≈ 1.7 to 3.39 µg/mL)

Q: What about the Gfp-Ras1 localization [5] of the same compound?
A: remains in the cytoplasm; also recorded: does not localize to the plasma membrane

Q: And the “MIC improvement in efflux-defective strain” value ([6]; MJ-1682 vs wild-type)?
A: eight-fold

Q: What about the MIC ([6]; efflux-defective strain MJ-1682) of the same compound?
A: 1.5 µM (≈ 0.848 µg/mL)

Q: And the MIC ([6]; wild-type S. pombe)?
A: 12.5 µM (≈ 7.07 µg/mL)

Q: And the “IC50 on mammalian FTase, worse than on the fungal enzyme” value (mammalian FTase)?
A: about 30 fold

Q: With CCCC[C@H]1CN(c2cccc(OC(F)(F)F)c2)C(=O)CN1Cc1cncn1Cc1ccc(C#N)c(F)c1 [Compound 2q, (S)-4-((5-((2-Butyl-5-oxo-4-(3-(trifluoromethoxy)-phenyl)piperazin-1-yl)methyl)-1H-imidazol-1-yl)methyl)-2-fluorobenzonitrile] as the compound, how does the Ki (CnFTase) read?
A: 4 nM

Q: And the “improvement of uncompetitive binding affinity in the H state” value (CnFTase; H state vs L state)?
A: ~10%

Q: And the inhibition mode (CnFTase)?
A: purely uncompetitive inhibitor

Q: And the antifungal activity (C. neoformans [4]; C. neoformans)?
A: barely exhibited antifungal activity

Q: What about the “improvement of 1μMIC50 over L-778,123” value ([7]; 1 μM FPP, relative to L-778,123) of the same compound?
A: 150 fold

Q: What about the “change of affinity relative to the comparator analogue (cf.)” value ([7]; pairwise comparison of analogues differing in one R group) of the same compound?
A: 9 fold

Q: Which results are given for N#Cc1ccc(Cn2cncc2CN2CCN(c3cccc(Cl)c3)C(=O)C2)cc1 [L-778,123]?
A: inhibition of C. neoformans FTase (CnFTase) [8]: modest inhibition; antifungal activity (C. neoformans [9]; Hast et al. 2011): did not have antifungal activity

Q: For OC(Cn1cncn1)(Cn1cncn1)c1ccc(F)cc1F [fluconazole], which MIC (C. neoformans [9]; C. neoformans, Bongomin et al. 2018) is on record?
A: ≥ 8 µg/mL
